Reference: patent publication US20190269771A1, “PEPTIDE MIMOTOPE THAT INDUCES AN IMMUNE RESPONSE AGAINST MYCOBACTERIUM TUBERCULOSIS LIPOARABINOMANNAN (LAM)” (priority 2017, published 2019)

Experiments:
[1] = system: rabbit polyclonal anti-LAM antibody; experiment: Peptide ELISA binding assay with rabbit polyclonal anti-LAM antibody; details: for OD values, binding of rabbit polyclonal anti-LAM antibody by ELISA: coating 10 μg/ml
Method: The ELISA plate wells were coated with by adding each peptide (2 μg in 0.1M NaHCO3, pH 8.6) and incubating overnight at 4° C. After overnight incubation, plates were blocked with BSA (5 mg/ml) for 1 hour at 4° C. For controls, wells were coated with same amount of LAM or BSA. After washing with TBST, diluted 143 anti-LAM antibodies were added to the ELISA plate and incubated at room temperature for 1 hour. Plates were washed with TBST and HRP-conjugated secondary antibodies were added and incubated for 1 hour. After washing 3 times with TBST, 50 μl of the 1-Step™ Ultra TMB-ELISA (Thermo Scientific Co, Ltd) substrates was added in the dark. After color development, 50 μl of 2M sulfuric acid was added to stop the reaction and absorbance was measured at 450 nm.

[2] = system: two monoclonal antibodies against M. tuberculosis lipoarabinomannan (LAM); experiment: Binding of recombinant M13 phages displaying the peptides to the anti-LAM mAbs; details: peptide displayed on the g3p minor coat protein of recombinant M13 phage
[3] = system: Mouse anti-LAM antibodies; experiment: ELISA with serum from LAM vaccinated mice against various antigens; type: binding; details: Swiss-Webster mice vaccinated with LAM combined with alum; FIG. 2D
Method: To perform ELISAS, 96-well ELISA plates (Greiner Bio-One Catalogue #655-001) were coated with 10 μg of corresponding coating antigens: HS peptide, HSSR peptide, Baculovirus, SG peptide, SGSR peptide, or LAM resuspended in coating buffer (0.1M NaHCO3, pH 8.6). After overnight coating at 4° C., blocking (5% skim milk in PBS) was performed for 1 hour at room temperature. After washing 3 times with washing buffer (0.01% Tween-20 in PBS), mouse serum was added to the appropriate wells and binding proceeded at room temperature for 1 hour. […] After incubating for 1 hour at room temperature, the plate was washed 3 times with TBST and 50 μl 179 of the 1-Step™ Ultra TMB180 ELISA substrate (Thermo Scientific) was added. 50 ul of 2M sulfuric acid was then added to stop the reaction and absorbance was measured at 450 nm.

With “CISLTEWSMWYRH [Peptide P8, previously published LAM mimotope peptide, reference compound]” as the substance, how does the “detection of KLH-conjugated peptide by rabbit anti-LAM polyclonal antibody above control” value ([1]; peptides conjugated to KLH vs scramble control, only at the 1:1000 dilution, FIG. 1B-E) read?
Its value is “could be specifically detected”.

Which “OD values, binding of rabbit polyclonal anti-LAM antibody by ELISA” value ([1]; HS peptide experiment, FIG. 2B) does the source give for HSFKWLDSPRLR [HS peptide] here?
The value was 0.45.

And the “binding affinity with both mAbs” value [2]?
The value was “strong binding affinity”.

With “KLH alone: keyhole limpet hemocyanin carrier protein [reference compound]” as the substance, how does the “binding by serum from LAM vaccinated mice” value [3] read?
The value was “not”.

Which “OD values, binding of rabbit polyclonal anti-LAM antibody by ELISA” value ([1]; SG peptide experiment, FIG. 2C) does the source give for SGVYKVAYDWQH [SG peptide] here?
Its value is 0.32.

What about the “binding affinity with both mAbs” value [2] of the same substance?
Its value is “strong binding affinity”.
